What all share (assay): relative viability (nuclei count vs DMSO), 5 days (fraction); higher = more cells survive
Compound in the experiment “GSK-J4 + Phenformin”: CCOC(=O)CCNc1cc(N2CCc3ccccc3CC2)nc(-c2ccccn2)n1 [GSK-J4] + N=C(N)NC(=N)NCCc1ccccc1 [Phenformin] (partner 250 µM)
The procedure, abridged:
(§1)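 Lung cancer cell lines in 1536-well plates were dosed by pin tool the day after seeding, either with one drug alone or with a fixed anchor-drug dose plus five library-drug doses (not always all listed) in √10 steps. After 5 days, cells were fixed and their nuclei stained in one step (final 0.05% Triton X-100, 1% formaldehyde, 1 ug/ml Hoechst), then counted on 4× images. Relative viability is the nuclei count in treated wells divided by that in vehicle wells. Values are medians of duplicate plates.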

Compound in the experiment “AZ3146 + Vorinostat”: CN1CCC(CC1)OC2=CC(=C(C=C2)NC3=NC=C4C(=N3)N(C(=O)N4C)C5CCCC5)OC [AZ3146] + O=C(CCCCCCC(=O)Nc1ccccc1)NO [Vorinostat] (partner 1 µM)
The procedure, abridged:
as §1

Compound in the experiment “GSK-J4 + Alpelisib”: CCOC(=O)CCNc1cc(N2CCc3ccccc3CC2)nc(-c2ccccn2)n1 [GSK-J4] + Cc1nc(NC(=O)N2CCC[C@H]2C(N)=O)sc1-c1ccnc(C(C)(C)C(F)(F)F)c1 [Alpelisib] (partner 2 µM)
The procedure, abridged: as §1

Compound in the experiment “GSK-J4 + Trametinib”: CCOC(=O)CCNc1cc(N2CCc3ccccc3CC2)nc(-c2ccccn2)n1 [GSK-J4] + CC(=O)Nc1cccc(-n2c(=O)n(C3CC3)c(=O)c3c(Nc4ccc(I)cc4F)n(C)c(=O)c(C)c32)c1 [Trametinib] (partner 0.02 µM)
In outline: as §1

Consider PC-3 [JPC-3], for which the relative viability in the experiment with GSK-J4 + Phenformin (first compound 0.5 µM) is 0.481; with GSK-J4 + Phenformin (first compound 1.581 µM) it was 0.48; with GSK-J4 + Phenformin (first compound 5 µM) it was 0.521; with GSK-J4 + Phenformin (first compound 15.81 µM) it was 0.5; with GSK-J4 + Phenformin (first compound 50 µM), 0.488; with AZ3146 + Vorinostat (first compound 0.08 µM), 0.554. In addition, the relative viability with AZ3146 + Vorinostat (first compound 0.8 µM) turned out to be 0.803; in the experiment with AZ3146 + Vorinostat (first compound 2.53 µM), 0.66; with AZ3146 + Vorinostat (first compound 8 µM), 0.713; with GSK-J4 + Alpelisib (first compound 0.5 µM), 0.984; in the experiment with GSK-J4 + Alpelisib (first compound 1.581 µM), 0.961; with GSK-J4 + Alpelisib (first compound 5 µM), 1.06. Besides, the relative viability with GSK-J4 + Alpelisib (first compound 15.81 µM) came to 0.997; with GSK-J4 + Alpelisib (first compound 50 µM), 0.848; with GSK-J4 + Trametinib (first compound 0.5 µM), 0.783; with GSK-J4 + Trametinib (first compound 1.581 µM), 0.551; in the experiment with GSK-J4 + Trametinib (first compound 5 µM) it was 0.598; with GSK-J4 + Trametinib (first compound 15.81 µM), 0.647. Also, the relative viability in the experiment with GSK-J4 + Trametinib (first compound 50 µM) was 0.64.

Take PC-14: the relative viability with GSK-J4 + Phenformin (first compound 0.5 µM) was found to be 0.624; with GSK-J4 + Phenformin (first compound 1.581 µM), 0.555; in the experiment with GSK-J4 + Phenformin (first compound 5 µM), 0.432; in the experiment with GSK-J4 + Phenformin (first compound 15.81 µM) it was 0.537; with GSK-J4 + Phenformin (first compound 50 µM), 0.53; with AZ3146 + Vorinostat (first compound 0.08 µM), 0.538. The relative viability came to 0.745 with AZ3146 + Vorinostat (first compound 0.253 µM); 0.546 with AZ3146 + Vorinostat (first compound 0.8 µM); 0.359 in the experiment with AZ3146 + Vorinostat (first compound 2.53 µM); 0.0815 in the experiment with AZ3146 + Vorinostat (first compound 8 µM); 0.916 with GSK-J4 + Alpelisib (first compound 0.5 µM); 0.909 with GSK-J4 + Alpelisib (first compound 1.581 µM). The relative viability with GSK-J4 + Alpelisib (first compound 5 µM) turned out to be 0.946; in the experiment with GSK-J4 + Alpelisib (first compound 15.81 µM), 0.873; in the experiment with GSK-J4 + Alpelisib (first compound 50 µM), 0.913; in the experiment with GSK-J4 + Trametinib (first compound 0.5 µM), 0.68; with GSK-J4 + Trametinib (first compound 1.581 µM) it was 0.663; in the experiment with GSK-J4 + Trametinib (first compound 5 µM), 0.503. In addition, the relative viability in the experiment with GSK-J4 + Trametinib (first compound 15.81 µM) stood at 0.738; with GSK-J4 + Trametinib (first compound 50 µM) it was 0.691.

Turning to RERF-LC-KJ, the relative viability amounted to 0.424 with GSK-J4 + Phenformin (first compound 0.5 µM); 0.441 with GSK-J4 + Phenformin (first compound 1.581 µM); 0.401 in the experiment with GSK-J4 + Phenformin (first compound 5 µM); 0.417 in the experiment with GSK-J4 + Phenformin (first compound 15.81 µM); 0.341 with GSK-J4 + Phenformin (first compound 50 µM); 0.534 with AZ3146 + Vorinostat (first compound 0.08 µM). The relative viability with AZ3146 + Vorinostat (first compound 0.253 µM) worked out at 0.657; with AZ3146 + Vorinostat (first compound 0.8 µM) it was 0.774; in the experiment with AZ3146 + Vorinostat (first compound 2.53 µM) it was 0.756; in the experiment with AZ3146 + Vorinostat (first compound 8 µM) it was 0.576; with GSK-J4 + Alpelisib (first compound 0.5 µM) it was 0.65; with GSK-J4 + Alpelisib (first compound 1.581 µM) it was 0.732. The relative viability turned out to be 0.803 with GSK-J4 + Alpelisib (first compound 5 µM); 0.744 in the experiment with GSK-J4 + Alpelisib (first compound 15.81 µM); 0.551 with GSK-J4 + Alpelisib (first compound 50 µM); 0.85 with GSK-J4 + Trametinib (first compound 0.5 µM); 0.845 with GSK-J4 + Trametinib (first compound 1.581 µM); 0.931 with GSK-J4 + Trametinib (first compound 5 µM). Also, the relative viability came out at 0.708 in the experiment with GSK-J4 + Trametinib (first compound 15.81 µM) and 0.66 with GSK-J4 + Trametinib (first compound 50 µM).

Turning to SK-LU-1, the relative viability in the experiment with GSK-J4 + Phenformin (first compound 0.5 µM) is 0.48; with GSK-J4 + Phenformin (first compound 1.581 µM), 0.495; in the experiment with GSK-J4 + Phenformin (first compound 5 µM) it was 0.323; in the experiment with GSK-J4 + Phenformin (first compound 15.81 µM), 0.365; with GSK-J4 + Phenformin (first compound 50 µM), 0.245; with AZ3146 + Vorinostat (first compound 0.08 µM) it was 0.746. In addition, the relative viability stood at 0.854 with AZ3146 + Vorinostat (first compound 0.253 µM); 0.752 with AZ3146 + Vorinostat (first compound 0.8 µM); 0.792 with AZ3146 + Vorinostat (first compound 2.53 µM); 0.504 in the experiment with AZ3146 + Vorinostat (first compound 8 µM); 0.927 with GSK-J4 + Alpelisib (first compound 0.5 µM); 0.885 with GSK-J4 + Alpelisib (first compound 1.581 µM). In addition, the relative viability came to 0.661 with GSK-J4 + Alpelisib (first compound 5 µM); 0.834 with GSK-J4 + Alpelisib (first compound 15.81 µM); 0.565 in the experiment with GSK-J4 + Alpelisib (first compound 50 µM); 0.468 in the experiment with GSK-J4 + Trametinib (first compound 0.5 µM); 0.499 with GSK-J4 + Trametinib (first compound 1.581 µM); 0.385 in the experiment with GSK-J4 + Trametinib (first compound 5 µM). Moreover, the figures for the relative viability with GSK-J4 + Trametinib (first compound 15.81 µM) and with GSK-J4 + Trametinib (first compound 50 µM) were 0.43 and 0.383, respectively.

With SK-MES-1, the relative viability with GSK-J4 + Phenformin (first compound 0.5 µM) is 0.582; in the experiment with GSK-J4 + Phenformin (first compound 1.581 µM), 0.585; with GSK-J4 + Phenformin (first compound 5 µM), 0.594; in the experiment with GSK-J4 + Phenformin (first compound 15.81 µM) it was 0.565; with GSK-J4 + Phenformin (first compound 50 µM) it was 0.371; with AZ3146 + Vorinostat (first compound 0.08 µM) it was 1.04. The relative viability in the experiment with AZ3146 + Vorinostat (first compound 0.253 µM) stood at 1.17; with AZ3146 + Vorinostat (first compound 0.8 µM), 1.14; in the experiment with AZ3146 + Vorinostat (first compound 2.53 µM), 1.19; in the experiment with AZ3146 + Vorinostat (first compound 8 µM), 0.701; in the experiment with GSK-J4 + Alpelisib (first compound 0.5 µM), 0.783; with GSK-J4 + Alpelisib (first compound 1.581 µM) it was 0.968. Besides, the relative viability was determined as 0.842 in the experiment with GSK-J4 + Alpelisib (first compound 5 µM); 0.805 with GSK-J4 + Alpelisib (first compound 15.81 µM); 0.819 with GSK-J4 + Alpelisib (first compound 50 µM); 0.56 with GSK-J4 + Trametinib (first compound 0.5 µM); 0.582 with GSK-J4 + Trametinib (first compound 1.581 µM); 0.497 with GSK-J4 + Trametinib (first compound 5 µM). In addition, the relative viability was 0.489 in the experiment with GSK-J4 + Trametinib (first compound 15.81 µM) and 0.478 with GSK-J4 + Trametinib (first compound 50 µM).

In the case of SW 1573, the relative viability came to 0.315 in the experiment with GSK-J4 + Phenformin (first compound 0.5 µM); 0.326 with GSK-J4 + Phenformin (first compound 1.581 µM); 0.336 with GSK-J4 + Phenformin (first compound 5 µM); 0.262 with GSK-J4 + Phenformin (first compound 15.81 µM); 0.247 with GSK-J4 + Phenformin (first compound 50 µM); 0.636 with AZ3146 + Vorinostat (first compound 0.08 µM). The relative viability with AZ3146 + Vorinostat (first compound 0.253 µM) came to 0.767; in the experiment with AZ3146 + Vorinostat (first compound 0.8 µM) it was 0.643; with AZ3146 + Vorinostat (first compound 2.53 µM) it was 0.723; with AZ3146 + Vorinostat (first compound 8 µM), 0.307; with GSK-J4 + Alpelisib (first compound 0.5 µM), 0.669; with GSK-J4 + Alpelisib (first compound 1.581 µM) it was 0.715. Besides, the relative viability with GSK-J4 + Alpelisib (first compound 5 µM) is 0.718; with GSK-J4 + Alpelisib (first compound 15.81 µM), 0.721; with GSK-J4 + Alpelisib (first compound 50 µM) it was 0.454; in the experiment with GSK-J4 + Trametinib (first compound 0.5 µM) it was 0.577; in the experiment with GSK-J4 + Trametinib (first compound 1.581 µM) it was 0.474; in the experiment with GSK-J4 + Trametinib (first compound 5 µM), 0.651. In addition, the relative viability stood at 0.599 with GSK-J4 + Trametinib (first compound 15.81 µM) and 0.381 with GSK-J4 + Trametinib (first compound 50 µM).

The values above are taken from the supplement of paper PMC10307832.
